Source: publication PMC3850926, “Evaluation of the adverse event profile and pharmacodynamics of toceranib phosphate administered to dogs with solid tumors at doses below the maximum tolerated dose” (BMC Veterinary Research, 2013)
“Also recorded” adds a separate entry of the source.

Assays:
VEGF = assay: Plasma VEGF concentrations (Canine VEGF Quantikine ELISA); assay type: in vivo, dog
Description: A total of 40 dogs were enrolled in this study, with dogs initially assigned to toceranib at 2.5 mg/kg or 2.75 mg/kg EOD. All dogs were placed on famotidine at 0.5-1 mg/kg once per day at study initiation and owners were instructed to administer the toceranib in the morning with food. Physical examination, routine bloodwork (CBC, biochemistry profile) and blood sampling for assessment of toceranib and VEGF plasma concentrations was performed pretreatment and on days 0, 7, 14 and 30 of treatment. […] Owners of dogs that experienced CR, PR, or SD at study day 30 were offered the option of continuing toceranib administration for an additional 6 months (provided at no cost), although patient data was not officially captured beyond day 30.
Blood was collected into EDTA tubes and centrifuged at 3000 × g for 10 minutes. Plasma was then collected and split evenly into two portions in cryovials, then stored at -80°C until analysis was performed for toceranib and VEGF concentrations.
A solid phase sandwich ELISA was used to measure plasma concentrations of VEGF. […] All standards and samples were performed in duplicate and the absorbance reading at […] was subtracted from the absorbance reading at […].
VEGF concentrations were analyzed in terms of percent change from baseline. […]

dogs with solid tumors = assay: Assessment of adverse events (VCOG-CTCAE); assay type: in vivo, dog
Description: All dogs were placed on famotidine at 0.5-1 mg/kg once per day at study initiation and owners were instructed to administer the toceranib in the morning with food. […] Dogs were evaluated for AEs on days 0, 7, 14, and 30 of study, as well as at interim time points as needed. AEs were defined and graded according to the published VCOG-CTCAE criteria. Disease progression or signs and symptoms definitely related to disease were not considered AEs.

[1] = system: AGASACA, thyroid carcinomas, head and neck carcinomas, nasal tumors; parameters: method as in PMID 22236194; conditions: median dose 2.8 mg/kg, cited from earlier work
[2] = system: target receptor tyrosine kinases; parameters: method as in PMID 12538485; conditions: established in rodent studies; cited from earlier work
dogs with MCT = conditions: dog, in vivo, cited from earlier work
KIT = conditions: dogs with MCT, 8 hours post drug administration; cited from earlier work
[3] = cited from earlier work
[4] = number of AEs, 40 dogs, 2.4-2.9 mg/kg EOD, 30 days

## Cc1[nH]c(/C=C2\C(=O)Nc3ccc(F)cc32)c(C)c1C(=O)NCCN1CCCC1 [toceranib, Toceranib phosphate]
VEGF; 8 hours post dosing, days 0, 7, 14, 30, p < 0.001
  change in plasma VEGF concentrations over the 30 day treatment period: increase significantly; also recorded: increased over time
VEGF; linear mixed models
  association of change in VEGF with Cmax and Tmax: associated with Cmax (p < 0.001), but not Tmax (p = 0.74)
Dogs with solid tumors; 2.4-2.9 mg/kg EOD
  grade 3 or 4 GI adverse events: no grade 3 or 4 GI adverse events
Dogs with solid tumors; 6 had concurrent gastrointestinal upset
  dogs with increased BUN without concomitant increase in creatinine: 9 dogs
Dogs with solid tumors; 6 had mild anemia of chronic disease before treatment
  dogs with grade 1 anemia: Thirteen
Dogs with solid tumors; 40 dogs, 30 days
  clinical evidence of hepatotoxicity: no dogs
  dogs that developed grade 1 anorexia (number): Thirteen
  dogs that developed grade 1 anorexia (percent): 32.5%
  dogs that developed grade 1 diarrhea (number): Fifteen
  dogs that developed grade 1 vomiting (number): Eighteen
  dogs that developed grade 2 diarrhea: Six
  dogs with grade 1 increases in AST: Five
  dogs with grade 1 thrombocytopenia: 2 dogs
  dogs with grade 2 anorexia: 1 dogs
  dogs with grade 2 colitis: two
  dogs with grade 2 vomiting: 3 dogs
  dogs with grade 3 hypertension: 2 dogs
  dogs with grade 3 lameness: 1 dogs
  dogs with mild-to-moderate lameness (grade 1–2): 10 dogs
  dogs with more than one episode of grade 1 diarrhea: 10 dogs
  dogs with more than one event of grade 1 vomiting: 5 dogs
  dogs with transient grade 1 elevations in ALT: 7 dogs
Dogs with solid tumors; after 1–3 weeks of therapy
  dogs with grade 1 neutropenia (number): 20/40
Dogs with solid tumors; all AEs of the study
  share of AEs that were grade 1 or grade 2: 86%
  share of AEs that were grade 2: 12%
Dogs with solid tumors; blood pressure measured only in animals with signs
  dogs that developed hypertension (any grade): 3 dogs
Dogs with solid tumors; dog, in vivo
  adverse event profile compared to the label dose of 3.25 mg/kg EOD: substantially reduced adverse event profile
Dogs with solid tumors; end of study period
  dogs with grade 3 AST elevation: 1 dogs
Dogs with solid tumors; grade 1 event
  dogs with weight loss: 3 dogs
Dogs with solid tumors; grade 1 or 2, 40 dogs, 30 days
  dogs with lethargy (number): 13 dogs
  dogs with lethargy (percent): 32.5%
Dogs with solid tumors; initiated at 2.5 mg/kg
  dogs requiring a dose modification: five
Dogs with solid tumors; initiated at 2.75 mg/kg
  dogs requiring a dose modification: three
Dogs with solid tumors; [4]
  Alopecia, Grade 1: 1
  Anemia, Grade 1: 13
  Anorexia, Grade 1: 15
  Anorexia, Grade 2: 1
  Colitis, Grade 2: 2
  Constipation, Grade 1: 1
  Cough, Grade 1: 4
  Dermatitis, Grade 1: 1
  Diarrhea, Grade 1: 34
  Diarrhea, Grade 2: 6
  Epistaxis, Grade 1: 3
  Fever, Grade 2: 1
  Hand-foot syndrome, Grade 1: 1
  Hypertension, Grade 1: 1
  Hypertension, Grade 3: 2
  Hypopigmentation, Grade 1: 2
  Ileus, Grade 3: 1
  Increase ALP, Grade 1: 9
  Increase ALP, Grade 2: 2
  Increase ALP, Grade 3: 1
  Increase ALT, Grade 1: 7
  Increase ALT, Grade 3: 1
  Increase ALT, Grade 4: 1
  Increase AST, Grade 1: 5
  Increase AST, Grade 3: 1
  Increase BUN, Grade 1: 9
  Increase BUN, Grade 2: 1
  Increase CK, Grade 1: 2
  Lameness, Grade 1: 6
  Lameness, Grade 2: 8
  Lameness, Grade 3: 1
  Lethargy, Grade 1: 15
  Lethargy, Grade 2: 2
  Neutropenia, Grade 1: 20
  Neutropenia, Grade 2: 1
  Ocular discharge, Grade 1: 3
  Pancreatitis, Grade 3: 1
  Panting, Grade 1: 3
  Protein losing nephropathy, Grade 1: 4
  Pruritus, Grade 1: 1
  Thrombocytopenia, Grade 1: 2
  Vomiting, Grade 1: 23
  Vomiting, Grade 2: 3
  Weight loss, Grade 1: 3
  all adverse events, Grade 1 (total): 188
  all adverse events, Grade 2 (total): 27
  all adverse events, Grade 3 (total): 8
  all adverse events, Grade 4 (total): 1
Dogs with solid tumors; remainder grade 2
  lethargy, grade 1 episodes among the affected dogs: 11
Dogs with solid tumors; resolved after 1 week discontinuation
  dogs with depigmentation and thinning of the footpads in all 4 limbs: One
Dogs with solid tumors; the 3 affected dogs
  weight loss, percent of initial recorded body weight: 5-10%
Dogs with solid tumors; throughout the study period
  dogs with dose changed (drug holiday and/or dose reduction), number: 8 dogs
  dogs with dose changed (drug holiday and/or dose reduction), percent: 20%
Dogs with solid tumors; without an apparent cause
  patients that developed protein losing nephropathy (PLN): 4 patients
[1]
  clinical benefit rate (CR + PR + SD): exceeding 80%
[1]; varied by tumor type
  objective response rates: 25-75%
[2]
  plasma concentration threshold for receptor (target) inhibition in vivo: 40 ng/mL
Dogs with MCT; 3.25 mg/kg
  dogs with dose changed (drug holiday and/or dose reduction): 48.3%
Dogs with MCT
  dogs that had a dose reduction due to AEs: approximately 20%
KIT
  lowest plasma concentration with intratumoral target modulation (downregulation of KIT and/or ERK phosphorylation): 30 ng/mL
[3]; healthy beagle dogs
  dose proportionality of Cmax: proportional to doses ranging from 2.0 to 6.0 mg/kg
[3]; previous studies
  time of maximum drug concentration (Tmax): 5.3 to 9.3 h
[3]; prior studies
  time of Cmax post drug administration: 6 to 8 h
